# Measurements from patent publication US20260265265A1, “NOVEL BENZIMIDAZOLONE DERIVATIVE COMPOUND AS AUTOTAXIN INHIBITOR” (LG CHEM, LTD., priority 2023, published 2026).
# Biological target: T1, Recombinant Human ENPP-2/Autotaxin (Homo sapiens, UniProt Q13822)
# T1 construct: purchased R&D systems 5255-EN
# Assay: LysoPLD activity measurement (autotaxin enzyme inhibition, choline release, TOOS reagent)
# Type: biochemical
# Details: LysoPLD inhibitory activity; substrate 14:0 LysoPC; absorbance at 555 nm
# Summary of the method: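 Enzyme and compound were preincubated for 30 min before adding 14:0 LysoPC substrate, diluted to 300 μM, for 90 minutes at 37° C. The choline product was quantified colorimetrically with TOOS reagent. Wells without compound held 1% DMSO.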
row,Compound,IC50 [nM]
1,"O=C(O)c1cccc(Cn2c(=O)n(-c3ccc(N4CCN(C(=O)C5CC5)CC4)cc3)c3cc(Cl)ccc32)c1 [Example 95, 3-((5-chloro-3-(4-(4-(cyclopropanecarbonyl)piperazin-1-yl)phenyl)-2-oxo-2,3-dihydro-1H-benzo[d]imidazol-1-yl)methyl)benzoic acid]",10 to 100
2,"CC(C)OC(=O)N1CCN(c2ccc(-n3c(=O)n(Cc4cccc(C(=O)O)c4)c4ccc(Cl)cc43)cc2)CC1 [Example 96, 3-((5-chloro-3-(4-(4-(isopropoxycarbonyl)piperazin-1-yl)phenyl)-2-oxo-2,3-dihydro-1H-benzo[d]imidazol-1-yl)methyl)benzoic acid]",10 to 100
3,"CN1CCN(c2ccc(-n3c(=O)n(Cc4cccc(C(=O)O)c4)c4ccc(Cl)cc43)cc2)CC1 [Example 97, 3-((5-chloro-3-(4-(4-methylpiperazin-1-yl)phenyl)-2-oxo-2,3-dihydro-1H-benzo[d]imidazol-1-yl)methyl)benzoic acid]",100 to 1000
4,"O=C(O)c1cccc(C2(n3c(=O)n(-c4ccc(C5CCCCC5)cc4)c4cc(Cl)ccc43)CC2)c1 [Example 98, 3-(1-(5-chloro-3-(4-cyclohexylphenyl)-2-oxo-2,3-dihydro-1H-benzo[d]imidazol-1-yl)cyclopropyl)benzoic acid]",100 to 1000
5,"O=C(O)c1cccc(C2(n3c(=O)n(-c4ccc(C5CCOCC5)cc4)c4cc(Cl)ccc43)CC2)c1 [Example 99, 3-(1-(5-chloro-2-oxo-3-(4-(tetrahydro-2H-pyran-4-yl)phenyl)-2,3-dihydro-1H-benzo[d]imidazol-1-yl)cyclopropyl)benzoic acid]",< 10
6,"O=C(O)c1cccc(Cn2c(=O)n(-c3ccc(C4CCN(C(=O)C5CC5)CC4)cc3)c3cc(Cl)ccc32)c1 [Example 100, 3-((5-chloro-3-(4-(1-(cyclopropanecarbonyl)piperidin-4-yl)phenyl)-2-oxo-2,3-dihydro-1H-benzo[d]imidazol-1-yl)methyl)benzoic acid]",10 to 100
7,"O=C(O)c1cccc(Cn2c(=O)n(-c3ccc(C4CCN(C(=O)C5CCC5)CC4)cc3)c3cc(Cl)ccc32)c1 [Example 101, 3-((5-chloro-3-(4-(1-(cyclobutanecarbonyl)piperidin-4-yl)phenyl)-2-oxo-2,3-dihydro-1H-benzo[d]imidazol-1-yl)methyl)benzoic acid]",100 to 1000
8,"CCC(=O)N1CCC(c2ccc(-n3c(=O)n(Cc4cccc(C(=O)O)c4)c4ccc(Cl)cc43)cc2)CC1 [Example 102, 3-((5-chloro-2-oxo-3-(4-(1-propionylpiperidin-4-yl)phenyl)-2,3-dihydro-1H-benzo[d]imidazol-1-yl)methyl)benzoic acid]",10 to 100
9,"O=C(O)c1cccc(Cn2c(=O)n(-c3ccc(C4CCOCC4)cc3)c3cc(Cl)ccc32)c1 [Example 103, 3-((5-chloro-2-oxo-3-(4-(tetrahydro-2H-pyran-4-yl)phenyl)-2,3-dihydro-1H-benzo[d]imidazol-1-yl)methyl)benzoic acid]",10 to 100
10,"O=C(O)c1cccc(Cn2c(=O)n(-c3ccc(C4=CCOCC4)cc3)c3cc(Cl)ccc32)c1 [Example 104, 3-((5-chloro-3-(4-(3,6-dihydro-2H-pyran-4-yl)phenyl)-2-oxo-2,3-dihydro-1H-benzo[d]imidazol-1-yl)methyl)benzoic acid]",10 to 100
11,"O=C(O)c1cccc(Cn2c(=O)n(-c3ccc(N4CCC(F)(F)C4)cc3)c3c(F)c(Cl)ccc32)c1 [Example 105, 3-((5-chloro-3-(4-(3,3-difluoropyrrolidin-1-yl)phenyl)-4-fluoro-2-oxo-2,3-dihydro-1H-benzo[d]imidazol-1-yl)methyl)benzoic acid]",100 to 1000
12,"O=C(O)c1cccc(C2(n3c(=O)n(-c4ccc(C5CCOCC5)cc4)c4cc(Cl)ccc43)CC2)c1F [Example 106, 3-(1-(5-chloro-2-oxo-3-(4-(tetrahydro-2H-pyran-4-yl)phenyl)-2,3-dihydro-1H-benzo[d]imidazol-1-yl)cyclopropyl)-2-fluorobenzoic acid]",< 10
